Results reported in patent publication US20260124214A1, “HETEROCYCLIC COMPOUNDS FOR USE IN THE TREATMENT OF CANCER” (ARTIOS PHARMA LIMITED, priority 2021, published 2026).
Structures can show the parent of a compound that is named as a salt.

Molecular target: T1, Human Polθ polymerase domain (aa1820-2590) (Homo sapiens, UniProt O75417)
T1 construct: Human Polθ polymerase domain (aa1820-2590) was expressed in E. Coli; made in house; host or cells: E. coli
T1 sequence (O75417 1820-2590): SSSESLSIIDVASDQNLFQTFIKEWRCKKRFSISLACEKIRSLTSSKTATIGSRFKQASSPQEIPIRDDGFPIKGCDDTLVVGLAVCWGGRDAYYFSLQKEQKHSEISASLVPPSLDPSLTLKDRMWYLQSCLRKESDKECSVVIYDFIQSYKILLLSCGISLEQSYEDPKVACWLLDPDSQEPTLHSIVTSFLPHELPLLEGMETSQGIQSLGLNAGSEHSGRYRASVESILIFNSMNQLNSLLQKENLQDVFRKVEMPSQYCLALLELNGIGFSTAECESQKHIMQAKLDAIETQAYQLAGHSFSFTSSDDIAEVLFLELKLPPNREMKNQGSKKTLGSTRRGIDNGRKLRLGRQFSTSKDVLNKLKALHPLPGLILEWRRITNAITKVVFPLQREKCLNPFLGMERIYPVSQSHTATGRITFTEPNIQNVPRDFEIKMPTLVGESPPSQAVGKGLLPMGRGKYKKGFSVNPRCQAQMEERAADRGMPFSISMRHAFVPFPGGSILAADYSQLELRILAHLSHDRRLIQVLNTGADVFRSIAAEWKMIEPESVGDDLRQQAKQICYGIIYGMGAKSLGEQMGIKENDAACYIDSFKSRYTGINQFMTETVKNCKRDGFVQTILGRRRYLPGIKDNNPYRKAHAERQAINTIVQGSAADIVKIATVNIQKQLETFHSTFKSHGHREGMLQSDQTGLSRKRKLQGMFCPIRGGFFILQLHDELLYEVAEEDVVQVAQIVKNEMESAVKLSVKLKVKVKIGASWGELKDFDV
Assay: Polθ Polymerase Domain WT KI Assay (PicoGreen)
Type: biochemical
Details: 100 nM DNA substrate, 0.156 nM Polθ, initial rates vs inhibitor concentration
Description: A PicoGreen assay was used to measure the KI values of reversible compounds that inhibit the activity of Polθ in vitro.
Human Polθ polymerase domain (aa1820-2590) was expressed in E. Coli, purified, aliquoted and stored at −80° C. until required. Polθ substrate was generated from a 1.2:1 mix of DNA II Short to DNA II Long to give a final concentration of […] substrate in annealing buffer (20 mM Tris pH 7.5, 50 mM NaCl). The substrate was heated in 50 mL aliquots to 95° C. in a heating block for 5 min before the heating block switched off, the reaction left to cool to rt and stored at −20° C. until required.
Assay measurements were performed with 1× buffer comprising 25 mM Tris pH 7.5, 12.5 mM NaCl, […], 5% (v/v) glycerol, 0.01% v/v Triton x-100, 0.1 mg/ml BSA, 1 mM DTT. […] 100 nL of 23×1:1.5-fold serial dilutions and a DMSO only control were dispensed using the Tecan dispenser into Greiner 384 well black low volume plates (product code 784076). DMSO concentration was maintained at 1% of the final assay volume by back filling with DMSO.
To stop the reaction, 5 μL of a solution containing 25 mM Tris-HCl PH 7.5 and 20 mM EDTA was added at […] (t=0, 15, 30, 60, 90, 120, 150, 180 mins) using the Tempest's time delay function. The plates were covered during the time course to prevent evaporation. After completing the assay, 5 μL of detection reagent (25 mM Tris-HCl pH 7.5 and 2.5% (v/v) PicoGreen) was dispensed into the wells using a Tempest liquid handler (Formulatrix) and plates subsequently read on the CLARIOstar Plus (BMG Labtech) using the default optical settings for fluorescein and the auto gain/focus settings.
All data analysis was carried out using GraphPad Prism V.8 (GraphPad Software Inc, San Diego, CA). Time course data for each inhibitor concentration were fitted to the linear regression model in GraphPad Prism. Any time points where the control (DMSO only) reaction was no longer linear were excluded from the analysis. The initial rates (slopes) obtained from the linear regression were then plotted against inhibitor concentration and fitted to an inhibitor vs. response variable slope (four parameter) model on GraphPad Prism to determine the KI values.

| SMILES | Ki [nM] |
| --- | --- |
| Cc1cc(C(F)(F)F)cc(N2C(=O)C[C@@H]3CN(CCN4CCN5C(=O)COC[C@H]5C4)c4c(C)cccc4N(C)C(=O)[C@H]32)n1 [Example 75, (3aR,11aS)-6,10-Dimethyl-1-(6-methyl-4-(trifluoromethyl)pyridin-2-yl)-5-(2-((R)-4-oxohexahydropyrazino[2,1-c][1,4]oxazin-8(1H)-yl)ethyl)-1,3a,4,5,10,11a-hexahydro-2H-benzo[b]pyrrolo[2,3-f][1,4]diazocine-2,11(3H)-dione] | 1.81 |
| Cc1cc(C(F)(F)F)cc(N2C(=O)C[C@@H]3CN(CCN4CCN(C)CC4)c4c(C)cccc4NC(=O)[C@H]32)n1 [Example 149, (3aR,11aS)-6-Methyl-1-(6-methyl-4-(trifluoromethyl)pyridin-2-yl)-5-(2-(4-methylpiperazin-1-yl)ethyl)-1,3a,4,5,10,11a-hexahydro-2H-benzo[b]pyrrolo[2,3-f][1,4]diazocine-2,11(3H)-dione] | 3.25 |
| Cc1cc(C(F)(F)F)cc(N2C(=O)C[C@@H]3CN(Cc4cn5c(n4)C(C)N(C)CC5)c4c(C)cccc4N(C)C(=O)[C@H]32)n1 (single isomer, unassigned) [Example 116a] | 0.63 |
| Cc1cc(C(F)(F)F)cc(N2C(=O)C[C@@H]3CN(CCN4CCN[C@@H](C)C4)c4c(C)cccc4N(C)C(=O)[C@H]32)n1 [Example 57, (3aR,11aS)-6,10-Dimethyl-1-(6-methyl-4-(trifluoromethyl)pyridin-2-yl)-5-(2-((S)-3-methylpiperazin-1-yl)ethyl)-1,3a,4,5,10,11a-hexahydro-2H-benzo[b]pyrrolo[2,3-f][1,4]diazocine-2,11(3H)-dione dihydrochloride] | 0.564 |
| Cc1cc(C(F)(F)F)cc(N2C(=O)C[C@@H]3CN(CCN4CCN(CCO)CC4)c4c(C)cccc4N(C)C(=O)[C@H]32)n1 [Example 53, (3aR,11aS)-5-(2-(4-(2-Hydroxyethyl)piperazin-1-yl)ethyl)-6,10-dimethyl-1-(6-methyl-4-(trifluoromethyl)pyridin-2-yl)-1,3a,4,5,10,11a-hexahydro-2H-benzo[b]pyrrolo[2,3-f][1,4]diazocine-2,11(3H)-dione] | 1.23 |
| Cc1cc(C(F)(F)F)cc(N2C(=O)C[C@@H]3CN(CC4CCCNC4)c4c(Cl)cccc4N(C)C(=O)[C@H]32)n1 (stereo partly drawn) [Example 110, (3aR,11aS)-6-Chloro-10-methyl-1-(6-methyl-4-(trifluoromethyl)pyridin-2-yl)-5-(piperidin-3-ylmethyl)-1,3a,4,5,10,11a-hexahydro-2H-benzo[b]pyrrolo[2,3-f][1,4]diazocine-2,11(3H)-dione] | 2.08 |
| Cc1cc(C(F)(F)F)cc(N2C(=O)C[C@@H]3CN(c4cccnc4)c4c(F)cccc4N(C)C(=O)[C@H]32)n1 [Example 138, (3aR,11aS)-6-Fluoro-10-methyl-1-(6-methyl-4-(trifluoromethyl)pyridin-2-yl)-5-(pyridin-3-yl)-1,3a,4,5,10,11a-hexahydro-2H-benzo[b]pyrrolo[2,3-f][1,4]diazocine-2,11(3H)-dione] | 645 |
| COCCN1CCC(CN2C[C@H]3CC(=O)N(c4cc(C(F)(F)F)cc(C)n4)[C@@H]3C(=O)N(C)c3cccc(Cl)c32)CC1 [Example 87, (3aR,11aS)-6-Chloro-5-((1-(2-methoxyethyl)piperidin-4-yl)methyl)-10-methyl-1-(6-methyl-4-(trifluoromethyl)pyridin-2-yl)-1,3a,4,5,10,11a-hexahydro-2H-benzo[b]pyrrolo[2,3-f][1,4]diazocine-2,11(3H)-dione] | 1.48 |
| Cc1cc(C(F)(F)F)cc(N2C(=O)C[C@@H]3CN(Cc4ccncc4)c4c(Cl)cccc4N(C)C(=O)[C@H]32)n1 [Example 94, (3aR,11aS)-6-Chloro-10-methyl-1-(6-methyl-4-(trifluoromethyl)pyridin-2-yl)-5-(pyridin-4-ylmethyl)-1,3a,4,5,10,11a-hexahydro-2H-benzo[b]pyrrolo[2,3-f][1,4]diazocine-2,11(3H)-dione] | 3.29 |
| CC(=O)N1CCN(CCN2C[C@H]3CC(=O)N(c4cc(C(F)(F)F)cc(C)n4)[C@@H]3C(=O)N(C)c3cccc(Cl)c32)[C@@H](C)C1 [Example 11, (3aR,11aS)-5-(2-((S)-4-Acetyl-2-methylpiperazin-1-yl)ethyl)-6-chloro-10-methyl-1-(6-methyl-4-(trifluoromethyl)pyridin-2-yl)-1,3a,4,5,10,11a-hexahydro-2H-benzo[b]pyrrolo[2,3-f][1,4]diazocine-2,11(3H)-dione] | 1.52 |
| Cc1cc(C(F)(F)F)cc(N2C(=O)C[C@@H]3CN(CCCN(C)C)c4c(Cl)cccc4N(C)C(=O)[C@H]32)n1 [Example 135, (3aR,11aS)-6-Chloro-5-(3-(dimethylamino)propyl)-10-methyl-1-(6-methyl-4-(trifluoromethyl)pyridin-2-yl)-1,3a,4,5,10,11a-hexahydro-2H-benzo[b]pyrrolo[2,3-f][1,4]diazocine-2,11(3H)-dione] | 3.49 |
| Cc1cc(C(F)(F)F)cc(N2C(=O)C[C@@H]3CN(Cc4cc5n(n4)CCN(C)C5)c4c(Cl)cccc4N(C)C(=O)[C@H]32)n1 [Example 76, (3aR,11aS)-6-Chloro-10-methyl-5-((5-methyl-4,5,6,7-tetrahydropyrazolo[1,5-a]pyrazin-2-yl)methyl)-1-(6-methyl-4-(trifluoromethyl)pyridin-2-yl)-1,3a,4,5,10,11a-hexahydro-2H-benzo[b]pyrrolo[2,3-f][1,4]diazocine-2,11(3H)-dione] | 0.458 |
| Cc1cc(C(F)(F)F)cc(N2C(=O)C[C@@H]3CN(CCN4CCC(C#N)CC4)c4c(Cl)cccc4N(C)C(=O)[C@H]32)n1 [Example 38, 1-(2-((3aR,11aS)-6-Chloro-10-methyl-1-(6-methyl-4-(trifluoromethyl)pyridin-2-yl)-2,11-dioxo-1,2,3,3a,4,10,11,11a-octahydro-5H-benzo[b]pyrrolo[2,3-f][1,4]diazocin-5-yl)ethyl)piperidine-4-carbonitrile] | 1.2 |
| Cc1cc(C(F)(F)F)cc(N2C(=O)C[C@@H]3CN(CC4CCN(CCF)CC4)c4c(Cl)cccc4N(C)C(=O)[C@H]32)n1 [Example 86, (3aR,11aS)-6-Chloro-5-((1-(2-fluoroethyl)piperidin-4-yl)methyl)-10-methyl-1-(6-methyl-4-(trifluoromethyl)pyridin-2-yl)-1,3a,4,5,10,11a-hexahydro-2H-benzo[b]pyrrolo[2,3-f][1,4]diazocine-2,11(3H)-dione] | 1.3 |
| Cc1cc(C(F)(F)F)cc(N2C(=O)CC3CN(C4CC(OCc5ccccc5)C4)c4c(F)cccc4N(C)C(=O)C32)n1 (single isomer, unassigned) [Example 92a] | 9.06 |
| Cc1cc(C(F)(F)F)cc(N2C(=O)C[C@@H]3CN(CCN4CCN(C)[C@@H](C)C4)c4c(Cl)cccc4N(C)C(=O)[C@H]32)n1 [Example 30, (3aR,11aS)-6-Chloro-5-(2-((S)-3,4-dimethylpiperazin-1-yl)ethyl)-10-methyl-1-(6-methyl-4-(trifluoromethyl)pyridin-2-yl)-1,3a,4,5,10,11a-hexahydro-2H-benzo[b]pyrrolo[2,3-f][1,4]diazocine-2,11(3H)-dione] | 0.381 |
| Cc1cc(C(F)(F)F)cc(N2C(=O)C[C@@H]3CN(CCN4CC[C@H](C#N)C4)c4c(Cl)cccc4N(C)C(=O)[C@H]32)n1 [Example 39, (S)-1-(2-((3aR,11aS)-6-Chloro-10-methyl-1-(6-methyl-4-(trifluoromethyl)pyridin-2-yl)-2,11-dioxo-1,2,3,3a,4,10,11,11a-octahydro-5H-benzo[b]pyrrolo[2,3-f][1,4]diazocin-5-yl)ethyl)pyrrolidine-3-carbonitrile] | 4.13 |
